Read-outs that look alike come from different tables or passages of the source.
How the values were obtained:
[1] = CX4/LCG supramolecular tandem membrane assay, POPC vesicles; type: in vitro ADME; details: 30 µM peptide; 25 µM POPC⸧CX4/LCG-LUVs (inside 700 µM CX4, 500 µM LCG) in 10 mM Hepes, pH 7.0, 25 °C; fluorescence λexc 369/λem 502 nm; peptide at 60 s, TX-100/protamine at 600 s; fractional activity; n = 1
Protocol: Membrane Activity M easurements
Vesicle preparation. 100 µ L of a solution of 25 mg/ml of POPC in chloroform or 200 µ L of a solution of 25 mg/ml of EYPC in chloroform was purged with nitrogen and dried overnight under hi gh vacuum. The thin lipid film was rehydrated with 1 ml reh ydrati on buffer (= inside buffer, see Tabl e S2 ) b y agitation at room temperature for 30min and then subjected to 2 0 freeze- th aw c ycles (freezing in liquid nitro gen and thawing at 40 °C). […]
Ta b l e S 2. Combinations of lipids and inside and outside buffer for CX4/LCG -LUVs.
No. Lipid Inside buffer = rehydration buffer Outside buffer
(4) POPC 10 mM Hepes, 700 µM CX4, 500 µM LCG, 10 mM Hepes buffer, 175 mM glucose, pH 7.5 [a] 175 mM glucose, pH 7.5 [a]
[a] Glucose b uffers (183 mOsm/L at 25 °C) were used within one week after preparation.
Vesicle quality control. T o ensure the absence of the CX4/ LCG reporter pair in the ex travesicular ph ase, 20 µL of the collected liposome fr action w as diluted to 2 ml with outside buffer and the fluor escen ce (λ exc = 369 nm; λ em = 502 nm) was recorded during the addition of […]
The final lipid content in the liposome suspension after p repa rat ion and separ ation was d etermined b y NMR as p reviousl y reported. Assay protocol. An appropriate volume of the liposome stock solutions was diluted to 2m L with outside buffer in a 10 ×10 mm quartz glass cuvette to afford a phospholipid concentration of 25 µM. The cuvette was placed into a thermostatted fluorimeter sample holder at 25.0 °C and gentl y stirred at 300 rpm. Subsequently, the time-dependent change in fluorescence intensity (λ exc = 369 nm; λ em = 502 nm) was record ed during addition of 20 µ L of peptide stock solutions of varying concentrations at 60 s. At 600 s, 20µ L o f a solution containing 1.6% (wt/vol) TX-100 and 1.5 mM protamine was added for calibration to affo rd 0.016% (wt/vol) TX-100 and 15 µM protamine final concent rations.
Time-dep endent fluores cence intensit y traces, I (t), were subsequentl y normalized to fractional intensities, If(t), using equation (1). Therein, I 0 is the intensity just before addition of peptide and I ∞ is the constant intensit y after addition of the calibration cockt ail.
IIf (tt ) = II (tt )−II0II∞ − II0 (1)
The concentration-dependent fractional intensities just before the addition of the calibration cocktail, If, were then normalized to fractional membrane activities, Y, using equation (2).
Therein, If,0 is the fractional intensit y just before addition of the calibration cocktail in absence of peptide and I f,∞ is the constant fractional intensity after addition of the calibration cocktail.
YY = IIf − IIf,0IIf,∞ − IIf,0 (2)
The fractional membrane activities, Y, were subsequently plotted against the peptide concentration, c, and analysed using the Hill equation (3) to obtain the effective molar concentration, EC50, and the Hill coefficient, n. Y0 and Y ma x are the fractional membrane activities in absen ce o f p eptide and at max imal peptide concent rations. For peptides with too little activity to determine Y ma x ex perimentall y, Y max was fixed at 1.0 during fitting. […]

[2] = In 10 mM NaH2PO4, pH 7.2; ref [46]; cited from earlier work
From the text: Table 1 Binding constants of peptides to CX4. ^a) | column: K a (M^−1)

[3] = type: binding; details: LCG displacement in 10 mM Hepes, pH 7.0, 25 °C; fluorescence; error = SD of nonlinear fit, n = 1
Protocol: Fluorescence titrations were performed as previously described and the resulting titration curves we re an al yz ed usi ng established pro cedur es . Competitive titrations were eithe r anal yz ed with a fitting function assuming 1:1 host-competitor complexes[3] or with a fitting function involving hi gher complex es with more than on e h ost bound per peptide.[4] In the latter c ase, an identical binding affinity is assumed for all binding sites. […]
Figure S1. a) Fluorescence titration of 0.5 µM LCG ( λex = 369 n m) with varying concentrations of CX4 in 10 mM Hepes, pH 7.0, 25 °C .b) Respective titration curve ( λem = 502 nm) with fitted line . […]
Figure S2. a) Competitive fluorescence titration wit h 0.5 µM LCG, 1 µM CX4 ( λex = 369 nm) and varying concentrations of penetratin in 10 mM Hepes, pH 7.0, 25 °C . b) Respective titration c ur ve (λem = 502 nm) with fitted line .
(also on this page, place not known: analyzed using procedures. were either analyzed host -competitor higher complexes one host case, 700 Intensity Intensity (λex °C. line. 650 0 Intensity 0 Intensity b) curve (λem nm) with line.)

[4] = Dual-channel assay, CX4/LCG channel, POPC vesicles; type: in vitro ADME; details: dual-channel; seven independent POPC LUV batches (n = 7), penetratin 15 µM, Pep-1 10 µM, LRLLRW 30 µM, TP10 0.15 µM, 10 mM Hepes, 175 mM glucose, pH 7.5, t-test/ANOVA p < 0.001; melittin: Figure S35 and Table S9
From the text: With the established identical extravesicular conditions in both assays, we further envisaged a simultaneous measurement of both assays within the same solution to enhance the comparability of the measurements. This became possible after optimization of the excitation and emission wavelengths. […] A further optimization was required, because the dye concentrations in the CF assay and the CX4/LCG assay are largely different.^[ [51], [52] ^] Consequently, simultaneous monitoring requires the detection of a low amount of LCG in the presence of a high concentration of the much more brightly fluorescent CF, which challenges the dynamic range of a typical fluorescence spectrometer in a dual‐channel measurement. To reduce the fluorescence read‐out of CF, the excitation wavelength was shifted from the absorption maximum at ca. 490 nm to 525 nm, where CF has a much lower absorbance, and the emission in the CF channel was shifted from its maximum at ca. 515 nm to 545 nm to further reduce the fluorescence of CF. To maintain a high LCG fluorescence, excitation was performed at the absorption maximum at 369 nm. Since CF has a residual absorbance at this excitation wavelength, emission in the LCG channel was monitored at 475 nm instead of 502 nm to eliminate spill‐over of CF fluorescence into the LCG channel. […]
Time-dep endent fluores cence intensit y traces, I (t), were subsequentl y normalized to fractional intensities, If(t), using equation (1) and the concentration- dependent fractional intensities just before the addition of th e calibration co cktail, I f, w ere then normaliz ed to fr actional membran e activities, Y, using equation (2). The fractional membrane activities, Y, were subsequently plotted against the peptide concentration, c, and anal ysed using the Hill equation (3) to obtain the effective molar concentration, EC 50, and the Hill coefficient, n. For peptides with too low activity to determine Y max ex perimentall y, Y max was fixed at 1.0 during fitting. […]
Dual-Channel Measurements
Vesicles w ere prep ared a s described abov e (se e en try (4) in Table S2 and entry (3) in Table S3) and eluted with freshl y prepared 10 mM Hepes, 175mM glucos e, pH 7.5 i n the size exclusion chromatograph y. For the measurements, an approp riate volume o f the liposome stock solutions was diluted to 2m L in a 10× 10 mm PS cuvette wi th 10 mM Hep es bu ffer and 175 mM glucos e at pH 7.5 to afford 12.5µM POPC ⊃CX4/LCG-LUVs and 12.5 µM POPC⊃CF-LUVs (25 µM POPC total). The cuvette was placed into a thermostatted fluorimeter sample holder at 25.0 °C and gentl y stirred at 300 rpm. The fluorescence intensity w as simultaneous l y r eco rded in the CF chann el ( λ exc = 525 nm, λ em = 545 nm) and in the LCG channel ( λ exc = 369 nm, λ em = 475 nm) with an ex citation slit width of 5 nm and an emission slit width of 5 n m during addition of 20 µL peptide stock solution of varying concentrations at 60 s and 20 µL of a calibration

[5] = CX4/LCG tandem membrane assay with subsequent addition of spermine (transient vs stable pores); type: in vitro ADME; details: TP10 0.2 µM or melittin 5 nM at 60 s, spermine 20 µM at 340 s, 10 mM Hepes, 175 mM glucose, pH 7.5
Protocol: This means that TP10 renders the vesicle membranes only transiently permeable, while after some time, the pores “close”, most likely due to equilibration of the inside and outside concentrations of TP10. At sufficiently low TP10 concentrations, the vesicles have consequently released only some of their content after a certain incubation time and no further release of encapsulated compounds is observed thereafter. The transient nature of the TP10 pores was also confirmed herein by the CX4/LCG tandem membrane assay (Figure 4, black line). […] At this point of time, the TP10 pores should be either closed, or there should be some remaining stable equilibrium pores, which are too small to allow efflux of relatively large CX4 and/or LCG (MW > 500 Da), but sufficiently large to allow CF efflux (MW = 376 Da). Closed pores would refer to the previously reported graded mechanism, whereas the latter would point toward an all‐or‐none release mechanism.^[ [12], [70] ^] […] The newly developed assay has therefore the added capacity to afford more fine‐grained mechanistic information on membrane activity.
The blue trace is a control to illustrate full dissociation of the CX4/LCG complex during vesicle lysis by TX‐100.
LysisLysis vesicle lysisvesicle lysis […]
calibration cocktail at 600 s. a) Original changes in fluorescence intensity of LCG ( λex = 369 nm, λem = […]

Row | Structure (SMILES) | Y30µM, membrane activity, CX4/LCG assay [1] | K a, binding constant of peptide to CX4 [2] | K a, binding constant of peptide to CX4 [3] | membrane activity in the CX4/LCG channel compared with the CF channel [4] | kind of pores (fluorescence response to spermine added after the peptide) [5]
1 | N=C(N)NCCC[C@H](NC(=O)[C@H](CCCNC(=N)N)NC(=O)[C@H](CCCNC(=N)N)NC(=O)[C@H](CCCNC(=N)N)NC(=O)[C@H](CCCNC(=N)N)NC(=O)[C@H](CCCNC(=N)N)NC(=O)[C@@H](N)CCCNC(=N)N)C(=O)O [Peptide R7, heptaarginine] | 0.17 | (7.2 ± 0.5) × 10^7 M^−1 |  |  | 
2 | CC[C@H](C)[C@H](NC(=O)CN)C(=O)NCC(=O)N[C@@H](C)C(=O)N[C@H](C(=O)N[C@@H](CC(C)C)C(=O)N[C@@H](CCCCN)C(=O)N[C@H](C(=O)N[C@@H](CC(C)C)C(=O)N[C@H](C(=O)N[C@H](C(=O)NCC(=O)N[C@@H](CC(C)C)C(=O)N1CCC[C@H]1C(=O)N[C@@H](C)C(=O)N[C@@H](CC(C)C)C(=O)N[C@H](C(=O)N[C@@H](CO)C(=O)N[C@@H](Cc1c[nH]c2ccccc12)C(=O)N[C@H](C(=O)N[C@@H](CCCCN)C(=O)N[C@@H](CCCNC(=N)N)C(=O)N[C@@H](CCCCN)C(=O)N[C@@H](CCCNC(=N)N)C(=O)N[C@@H](CCC(N)=O)C(=O)N[C@@H](CCC(N)=O)C(N)=O)[C@@H](C)CC)[C@@H](C)CC)[C@@H](C)O)[C@@H](C)O)C(C)C)C(C)C [Melittin] |  |  | (1.2 ± 0.3) × 10^7 M^−1 | higher activity with the CF assay | forms stable equilibrium pores
3 | N=C(N)NCCC[C@H](NC(=O)[C@H](CCCNC(=N)N)NC(=O)[C@H](CCCNC(=N)N)NC(=O)[C@H](CCCNC(=N)N)NC(=O)[C@H](CCCNC(=N)N)NC(=O)[C@H](CCCNC(=N)N)NC(=O)[C@H](CCCNC(=N)N)NC(=O)[C@H](CCCNC(=N)N)NC(=O)[C@@H](N)CCCNC(=N)N)C(=O)O [Peptide R9, nonaarginine] | 0.11 |  | (1.8 ± 0.4) × 10^8 M^−1 |  | 
